Columns and labels:
[1] = target: T1, PHGDH (Homo sapiens, UniProt O43175); details: coupled-enzyme assay
T1 sequence (O43175 1-533): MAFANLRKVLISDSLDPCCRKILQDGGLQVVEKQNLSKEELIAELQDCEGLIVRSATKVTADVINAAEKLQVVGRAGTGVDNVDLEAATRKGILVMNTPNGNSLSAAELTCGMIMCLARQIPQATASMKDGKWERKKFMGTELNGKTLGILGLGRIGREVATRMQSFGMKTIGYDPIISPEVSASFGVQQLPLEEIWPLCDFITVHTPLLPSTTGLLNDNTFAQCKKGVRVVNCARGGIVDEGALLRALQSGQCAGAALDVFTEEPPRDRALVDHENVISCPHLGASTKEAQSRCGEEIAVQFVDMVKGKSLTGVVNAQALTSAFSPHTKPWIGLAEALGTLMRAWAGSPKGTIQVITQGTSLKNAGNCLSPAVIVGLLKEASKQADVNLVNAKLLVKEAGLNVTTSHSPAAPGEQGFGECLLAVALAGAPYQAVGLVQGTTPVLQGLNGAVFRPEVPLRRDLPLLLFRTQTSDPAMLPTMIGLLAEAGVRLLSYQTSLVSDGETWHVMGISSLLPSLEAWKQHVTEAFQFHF

[2] = tested on: SiHa; assay: Cell proliferation inhibition, SiHa in serine-replete or -deplete medium; format: cell-based, human; details: ratio of IC50 in serine-replete to serine-deplete medium
[3] = tested on: HL-60 shCTRL; assay: Cell proliferation inhibition, HL-60 shCTRL in serine-replete or -deplete medium; format: cell-based, human; details: ratio of IC50 in serine-replete to serine-deplete medium
[4] = target: T1, PHGDH; assay: Ki measurement / competition assay by titrating 3-PG or NAD+; format: biochemical
[5] = target: T1, PHGDH; assay: Rapid dilution; format: biochemical; details: 160 μM, 45 min at 37 °C, diluted 10-fold

Row | SMILES | PHGDH inhibition (IC50, μM) [1] | SiHa IC50+Ser/IC50−Ser [2] | HL-60 shCTRL IC50+Ser/IC50−Ser [3] | mode of action with respect to both substrates (3-PG and NAD+) [4] | recovery of enzymatic activity after dilution [5]
1 | O=C(C(=S)N1CCOCC1)c1ccccc1Cl [compound 23, 1-(2-Chlorophenyl)-2-morpholino-2-thioxoethanone] | no inhibition | – | – | – | –
2 | O=C(Nc1ccccc1[N+](=O)[O-])c1ccc(Cl)cc1 [compound 12] | – | >1.7 | >1.2 | – | –
3 | O=C(C(=S)N1CCOCC1)c1ccccc1 [compound 19, 1-Phenyl-2-morpholino-2-thioxoethanone] | – | – | >5.5 | noncompetitive | enzymatic activity is not recovered after dilution
4 | O=C(C(=S)N1CCOCC1)c1cccc(Cl)c1 [compound 24, 1-(3-Chlorophenyl)-2-morpholino-2-thioxoethanone] | no inhibition | – | – | – | –

Reference: article PMC5603230 (Journal of medicinal chemistry, 2017)
